According to patent US7074779B2, “Estrieno[3,2-b]/[3,4-c]pyrrole derivatives useful as modulators of the estrogen receptors” (Ortho-McNeil Pharmaceutical, Inc., priority 2003, dated 2006):

Biological target: T1, human estrogen receptor β (Homo sapiens, UniProt Q92731)
T1 construct: purchased Panvera
Assay: Estrogen Receptor β Fluorescence Polarization Assay
Details: displacement of Fluormone ES2; read-out: ERβ Binding IC50
Source text: This assay monitors binding of a fluorescent analog of estrogen (Fluormone ES2, Panvera) to the estrogen receptor. Plates were read in a fluorometer that can be set to polarization mode. A decrease in […] relative to vehicle control is an indication of binding of a compound to the receptor. It is crucial to avoid introduction of air bubbles into the reaction in each well of the 96 well plate throughout this procedure. (Bubbles on the surface of the reaction disrupt light flow, affecting the polarization reading.) However, it is also crucial to effectively mix the reaction components upon addition to the well. On ice, a 2× standard mixture of Assay Buffer (Panvera), 10 nM DTT and 40 nM ES2 was prepared. On ice, a 2× reaction mixture of Assay Buffer (Panvera), and 20 nM human estrogen receptor β (hER-β, Panvera) and 40 nM ES2 was also prepared. Dilutions-of test compound were prepared in 30% (v/v) dimethyl sulfoxide/50 mM HEPES, pH 7.5. At this point, the dilutions were 40× the final required concentration. The standard mixture at 50 μL was then added to each well. The reaction mixture at 48 μL was added to all wells. The compound dilution at 2.5 μL was added to the appropriate wells. The reaction mixtures were mixed using a manual pipette, a roll of aluminum foil adhesive cover was placed on the plate and the plate incubated at room temperature for 1 hour. Each well on the plate was then read in an LjL Analyst with an excitation wavelength of […] and an emission wavelength of 538.

T1 sequence (Q92731 whole entry): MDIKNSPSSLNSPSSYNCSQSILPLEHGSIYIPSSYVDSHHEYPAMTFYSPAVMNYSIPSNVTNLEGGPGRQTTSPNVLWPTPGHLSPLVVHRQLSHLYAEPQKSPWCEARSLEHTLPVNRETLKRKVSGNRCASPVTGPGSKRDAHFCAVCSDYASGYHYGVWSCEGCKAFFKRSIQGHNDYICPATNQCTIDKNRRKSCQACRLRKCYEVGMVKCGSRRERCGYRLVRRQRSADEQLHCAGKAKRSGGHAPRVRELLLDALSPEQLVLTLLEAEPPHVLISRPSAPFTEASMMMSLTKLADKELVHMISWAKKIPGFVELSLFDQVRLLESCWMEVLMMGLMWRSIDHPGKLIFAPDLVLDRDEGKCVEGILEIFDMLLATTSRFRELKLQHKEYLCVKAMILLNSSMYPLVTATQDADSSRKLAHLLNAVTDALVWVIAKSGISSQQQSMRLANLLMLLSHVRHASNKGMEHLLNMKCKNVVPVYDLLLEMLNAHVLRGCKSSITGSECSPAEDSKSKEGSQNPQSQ

Compound	IC50 [nM]
C[C@]12CCC3c4cc5cc[nH]c5cc4CCC3C1CCC2=O (some centres unmarked) [Compound 3]	> 10000
C[C@]12CCC3c4ccc5[nH]ccc5c4CCC3C1CCC2=O (some centres unmarked) [Compound 4]	610
C[C@]12CCC3c4ccc5[nH]ccc5c4CCC3C1CC[C@@H]2O (some centres unmarked) [Compound 6]	91
C[C@]12CCC3c4cc5cc[nH]c5cc4CCC3C1CC[C@@H]2OC(=O)CCC(=O)O (some centres unmarked) [Compound 13]	610
C[C@]12CCC3c4cc5cc[nH]c5cc4CCC3C1CC[C@@H]2O (some centres unmarked) [Compound 8]	150
